# Measured values reported in publication PMC10609143, “Inhibitory Mechanisms of Lekethromycin in Dog Liver Cytochrome P450 Enzymes Based on UPLC-MS/MS Cocktail Method” (Molecules, 2023).
# Tests used:
# Type in all cases: in vitro ADME
# [1] = tested on: CYP2A6; assay: CYP450 inhibition study of LKMS in dog liver microsomes, coumarin hydroxylation
# Experimental: (§1) All experiments were performed in triplicate.
# (§2) Inhibition assessment of CYP450 isoforms in DLM was performed with a fixed concentration of model probe substrates and a series of concentrations of LKMS ranging from 0 to 80 μM. The concentration of probe substrates was at a concentration of Km in this study. […] Mode inhibition was examined based on a primary Lineweaver–Burk plot and a secondary plot.
# (§3) The IC50 values and enzyme kinetic parameters were determined by plotting relative activities over the logarithm of the concentration of LKMS using GraphPad (v.8.0.2, CA, USA). The mode of the inhibitor was analyzed using a Lineweaver–Burk plot and a secondary plot for inhibition constant (Ki and αKi) values. All experimental data are shown as mean ± standard deviation (SD).
# [2] = biological target: T1, CYP2B6 (Canis lupus familiaris, UniProt P24460); assay: CYP450 inhibition study of LKMS in dog liver microsomes, bupropion hydroxylation
# T1 construct: from tissue; host or cells: dog liver microsomes (DLM)
# T1 sequence (P24460 1-494): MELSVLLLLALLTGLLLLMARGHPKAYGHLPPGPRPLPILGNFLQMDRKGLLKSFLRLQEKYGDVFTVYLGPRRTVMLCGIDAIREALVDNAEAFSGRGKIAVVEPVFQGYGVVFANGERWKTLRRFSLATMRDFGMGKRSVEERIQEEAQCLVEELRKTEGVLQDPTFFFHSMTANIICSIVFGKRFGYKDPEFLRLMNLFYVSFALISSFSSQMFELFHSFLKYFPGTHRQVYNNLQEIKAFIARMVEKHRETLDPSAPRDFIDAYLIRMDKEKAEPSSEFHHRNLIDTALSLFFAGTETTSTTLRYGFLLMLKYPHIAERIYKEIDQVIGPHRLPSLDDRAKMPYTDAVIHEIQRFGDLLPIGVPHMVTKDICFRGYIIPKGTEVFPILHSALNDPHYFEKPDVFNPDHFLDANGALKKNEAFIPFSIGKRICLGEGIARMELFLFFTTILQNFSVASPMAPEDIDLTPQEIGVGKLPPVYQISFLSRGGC
# Experimental: as §1, §2, §3
# [3] = CYP450 inhibition study of LKMS in dog liver microsomes, testosterone 6β-hydroxylation; settings: probe at Km, 15 min, 0.2 mg/mL protein, n = 3
# Experimental: as §1, §2, §3
# [4] = biological target: T2, CYP2E1 (Canis lupus familiaris, UniProt Q9MZY0); assay: CYP450 inhibition study of LKMS in dog liver microsomes, chlorzoxazone hydroxylation; settings: probe at Km, 15 min, 0.2 mg/mL protein, n = 3
# T2 construct: from tissue; host or cells: dog liver microsomes (DLM)
# T2 sequence (Q9MZY0 whole entry): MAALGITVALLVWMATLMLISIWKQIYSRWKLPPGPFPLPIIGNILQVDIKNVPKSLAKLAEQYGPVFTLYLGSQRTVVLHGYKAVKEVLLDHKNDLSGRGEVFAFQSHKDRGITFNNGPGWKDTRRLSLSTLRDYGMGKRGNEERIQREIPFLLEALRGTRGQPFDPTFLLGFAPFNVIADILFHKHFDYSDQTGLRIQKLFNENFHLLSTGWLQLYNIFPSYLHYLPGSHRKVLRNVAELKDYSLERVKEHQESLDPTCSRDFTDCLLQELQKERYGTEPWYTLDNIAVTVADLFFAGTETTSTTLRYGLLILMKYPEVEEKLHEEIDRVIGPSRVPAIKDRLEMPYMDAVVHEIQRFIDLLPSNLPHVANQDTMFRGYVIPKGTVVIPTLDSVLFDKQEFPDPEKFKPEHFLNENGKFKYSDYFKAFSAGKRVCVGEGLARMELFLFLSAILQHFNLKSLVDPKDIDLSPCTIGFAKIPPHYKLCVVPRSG
# Experimental: as §1, §2, §3
# [5] = biological target: T3, CYP2D6 (Canis lupus familiaris, UniProt Q29473); assay: CYP450 inhibition study of LKMS in dog liver microsomes, dextromethorphan O-demethylation
# T3 construct: from tissue; host or cells: dog liver microsomes (DLM)
# T3 sequence (Q29473 1-500): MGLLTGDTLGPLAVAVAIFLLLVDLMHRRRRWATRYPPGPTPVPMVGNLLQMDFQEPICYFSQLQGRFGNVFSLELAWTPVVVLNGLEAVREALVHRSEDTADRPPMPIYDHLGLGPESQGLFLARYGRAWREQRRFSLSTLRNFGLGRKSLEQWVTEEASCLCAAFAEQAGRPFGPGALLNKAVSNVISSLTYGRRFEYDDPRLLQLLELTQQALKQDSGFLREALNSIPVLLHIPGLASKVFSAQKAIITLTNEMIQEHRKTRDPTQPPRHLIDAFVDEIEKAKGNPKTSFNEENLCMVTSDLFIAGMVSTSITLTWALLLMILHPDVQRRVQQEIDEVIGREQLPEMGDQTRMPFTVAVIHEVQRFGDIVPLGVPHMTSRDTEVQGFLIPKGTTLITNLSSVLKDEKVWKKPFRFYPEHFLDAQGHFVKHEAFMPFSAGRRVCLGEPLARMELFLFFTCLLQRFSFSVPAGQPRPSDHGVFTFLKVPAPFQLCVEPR
# Experimental: as §1, §2, §3
substance,measurement,setting,value
Lekethromycin [LKMS],Mode of inhibition,"[1]; CYP2A6, Lineweaver-Burk plots",mixed-type inhibition
same,Ki,"[1]; CYP2A6, dog liver microsomes, Lineweaver-Burk and secondary (slope) plot, n = 2, read-out: Ki (inhibition constant)",136 µM
same,αKi (alpha inhibition constant),"[1]; CYP2A6, dog liver microsomes, secondary (intercept) plot, n = 2",227.6 µM
same,IC50,"[1]; dog liver microsomes, coumarin hydroxylation, probe at Km, 15 min, 0.2 mg/mL protein, n = 3",62.5 µM
same,Mode of inhibition,"[2]; CYP2B6, Lineweaver-Burk plots",mixed way
same,Ki,"[2]; CYP2B6, dog liver microsomes, Lineweaver-Burk and secondary (slope) plot, n = 2, read-out: Ki (inhibition constant)",59.4 µM
same,αKi (alpha inhibition constant),"[2]; CYP2B6, dog liver microsomes, secondary (intercept) plot, n = 2",12.07 µM
same,IC50,[3],> 200 µM
same,IC50,[4],> 200 µM
same,Mode of inhibition,"[5]; CYP2D6, Lineweaver-Burk plots",mixed way
same,Ki,"[5]; CYP2D6, dog liver microsomes, Lineweaver-Burk and secondary (slope) plot, n = 2, read-out: Ki (inhibition constant)",64.9 µM
same,αKi (alpha inhibition constant),"[5]; CYP2D6, dog liver microsomes, secondary (intercept) plot, n = 2",279.6 µM
same,IC50,"[5]; dog liver microsomes, dextromethorphan O-demethylation, probe at Km, 15 min, 0.2 mg/mL protein, n = 3",39.7 µM
